The source of these data is patent US4265904A, “Prostacyclin analogs of the 1 series and related analogs” (American Cyanamid Company, priority 1979, dated 1981).

Holding throughout (type): in vivo, guinea pigs
Experiment [1] has as its system bronchospasms elicited by 5-hydroxytryptamine. The experiment can be described thus: Bronchodilator activity against bronchospasm elicited by intravenous 5-hydroxytryptamine, Konzett procedure. As to conditions: Cavia porcellus; guinea pig, 5-hydroxytryptamine spasmogen, three logarithmic cumulative intravenous doses; read-out: ED50 5HT. The method, then:
(§1) The compounds of this invention are useful as bronchodilators for the treatment of asthma and chronic bronchitis. Bronchodilator activity is determined in guinea pigs against bronchospasms elicited by intravenous injections of 5-hydroxytryptamine, histamine or acetylcholine by the Konzett procedure. [See J. Lulling, P. Lievens, F. El Sayed and J. Prignot, Arzneimittel-Forschung, 18, 995 (1968).]
(§2) In Table which follows bronchodilator activity for representative compounds of this invention against one or more of three spasmogenic agents is expressed as an ED50 determined from the results obtained with three logarithmic cummulative intravenous doses. In this assay, these compounds of this invention provide an effect of longer duration than does natural l-PGE1 or l-PGE2.

Experiment [2] deals with bronchospasms elicited by histamine. In words: Bronchodilator activity against bronchospasm elicited by intravenous histamine, Konzett procedure. As to conditions: Cavia porcellus; guinea pig, histamine spasmogen, three logarithmic cumulative intravenous doses. The method, then: as §1, §2
The subject of experiment [3] is bronchospasms elicited by acetylcholine. The experiment can be described thus: Bronchodilator activity against bronchospasm elicited by intravenous acetylcholine, Konzett procedure. As to conditions: Cavia porcellus; guinea pig, acetylcholine spasmogen, three logarithmic cumulative intravenous doses. As to the method: as §1, §2

The structures appear in SMILES notation.

For the compound `C=CC(O)(C/C=C/[C@@H]1[C@H]2CC(CCCCC(=O)CO)O[C@H]2C[C@H]1O)CCCC` (relative stereo) [11a, 16-Dihydroxy-6,9a (epoxy)-1-hydroxymethyl-1-oxo-16-vinyl-13-trans-prostene], the figures for the 50% effective dose (ED50) in experiment [1], in experiment [2] and in experiment [3] were 0.0276 mg/kg, 0.00146 mg/kg and 0.0032 mg/kg, respectively.
`CCCCC(C)(O)C/C=C/[C@@H]1[C@H]2CC(C(I)CCCC(=O)OC)O[C@H]2C[C@H]1O` (relative stereo) [dl 11α,16-Dihydroxy-6,9α-epoxy-5-iodo-16-methyl-13-trans-prostenoic acid methyl ester]: the ED50 – broadly, the midpoint of the dose-response relation – in experiment [1] stood at 0.004 mg/kg; in experiment [2], 0.0069 mg/kg; in experiment [3] it was 0.0065 mg/kg.
As to `CCCCC(C)(O)C/C=C/[C@@H]1[C@H]2CC(CCCCC(=O)OC)O[C@H]2C[C@H]1O` (relative stereo) [dl 11α,16-Dihydroxy-6,9α-epoxy-16-methyl-13-trans-prostenoic acid methyl ester], the ED50 in experiment [1] worked out at 0.0925 mg/kg; in experiment [2], 0.111 mg/kg; in experiment [3], 0.146 mg/kg.
The like results for `C=CC(O)(C/C=C/[C@@H]1[C@H]2CC(CCCCC(=O)OC)O[C@H]2C[C@H]1O)CCCC` (relative stereo) [dl 11α,16-Dihydroxy-6,9α-epoxy-16-vinyl-13-trans-prostenoic acid methyl ester] were, in that order, 0.0367 mg/kg, 0.0254 mg/kg and 0.0491 mg/kg.
